Results published in patent US7994167B2, “Pentafluorosulphanyl-substituted compound and its use for producing medicaments” (Gruenenthal GmbH, priority 2005, dated 2011).
Like-named read-outs stand apart in the source and are kept apart here.

Columns and labels:
[1] = biological target: T1, vanilloid receptor 1 (VR1/TRPV1) of the rat (Rattus norvegicus, UniProt O35433); assay: FLIPR Ca2+ influx assay in rat dorsal root ganglia cells (functional investigation I); assay type: cell-based; details: for IC50: VR1 rat; for VR1 (rat) (% blocking compared with 1 μM CP) / VR1 (rat) (% stimulation compared with 1 μM CP): rat DRG cells, test compound 1 μM; for VR1 (rat) (% blocking compared with 1 μM CP): 5 min incubation, then 100 nM capsaicin; for VR1 (rat) (% stimulation compared with 1 μM CP): Ca2+ signal relative to 1 μM capsaicin (CP)
T1 construct: The spinal column was removed from decapitated rats; from tissue; host or cells: primary rat dorsal root ganglion (DRG) cells
T1 sequence (O35433 whole entry): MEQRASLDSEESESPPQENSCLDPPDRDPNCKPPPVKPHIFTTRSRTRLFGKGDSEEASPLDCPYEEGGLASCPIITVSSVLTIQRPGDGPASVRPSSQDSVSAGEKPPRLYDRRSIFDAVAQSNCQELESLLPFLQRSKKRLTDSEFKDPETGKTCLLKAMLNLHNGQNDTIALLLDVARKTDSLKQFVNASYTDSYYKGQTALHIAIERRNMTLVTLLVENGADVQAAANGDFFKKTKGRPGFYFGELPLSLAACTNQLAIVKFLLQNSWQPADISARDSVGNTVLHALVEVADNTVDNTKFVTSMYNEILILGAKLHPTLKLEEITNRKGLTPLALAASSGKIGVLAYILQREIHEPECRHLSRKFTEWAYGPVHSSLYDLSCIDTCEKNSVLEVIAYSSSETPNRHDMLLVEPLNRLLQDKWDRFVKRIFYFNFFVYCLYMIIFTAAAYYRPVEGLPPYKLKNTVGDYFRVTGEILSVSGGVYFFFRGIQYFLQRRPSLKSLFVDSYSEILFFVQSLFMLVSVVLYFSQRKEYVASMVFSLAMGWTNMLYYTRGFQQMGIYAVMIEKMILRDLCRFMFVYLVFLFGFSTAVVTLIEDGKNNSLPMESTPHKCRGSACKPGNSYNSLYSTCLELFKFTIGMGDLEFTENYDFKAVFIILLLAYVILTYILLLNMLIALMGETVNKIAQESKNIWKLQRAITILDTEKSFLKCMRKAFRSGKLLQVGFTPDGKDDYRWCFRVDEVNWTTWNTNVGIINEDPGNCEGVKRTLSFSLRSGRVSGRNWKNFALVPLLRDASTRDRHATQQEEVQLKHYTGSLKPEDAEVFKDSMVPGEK
Description: I. Functional Investigation Using the Vanilloid Receptor 1 (VR1/TRPV1 Receptor)
The agonistic and antagonistic effects of the substances under investigation on the vanilloid receptor 1 (VR1/TRPV1) of the rat can be determined using the following assay. According to this assay, the Ca^2+ influx through the receptor channel is quantified with the aid of a Ca^2+-sensitive dye (of the type Fluo-4, from Molecular Probes Europe BV, Leiden, Netherlands) in a Fluorescent Imaging Plate Reader (FLIPR, from Molecular Devices, Sunnyvale, USA).
Complete medium: 10% by volume FCS (foetal calf serum, from Gibco Invitrogen GmbH, Karlsruhe, Germany, heat deactivated);
2 mM L-glutamine (from Sigma, Munich, Germany);
1% by weight of AA solution (antibiotic/antimycotic solution, from PAA, Pasching, Austria) and 25 ng/ml Medium NGF (2.5 S, from Gibco Invitrogen GmbH, Karlsruhe, Germany)
Cell culture plate: poly-D-lysine-coated, black 96-well plates with clear bases (96 well black/clear plate, from BD Biosciences, Heidelberg, Germany) were also coated with laminin (from Gibco Invitrogen GmbH, Karlsruhe, Germany), in that the laminin was diluted to a concentration of 100 μg/ml with PBS (Ca—Mg-free PBS, from Gibco Invitrogen GmbH, Karlsruhe, Germany). Aliquots with a concentration of 100 μg/ml of laminin were taken and stored at −20° C. The aliquots were diluted with PBS in a ratio of 1:10 to 10 μg/ml laminin and 50 μl of the solution was pipetted into each well in the cell culture plate. The cell culture plates were then incubated for at least two hours at 37° C., the residual solution drawn off and the wells washed twice with PBS. The coated cell culture plates were stored with the residual PBS, which was removed immediately before offering up the cells.
Preparation of the Cells:
The spinal column was removed from decapitated rats and laid directly into cold (placed in an ice bath) HBSS buffer (Hank's buffered saline solution, from Gibco Invitrogen GmbH, Karlsruhe, Germany) to which was added 1% by volume of an AA-solution (antibiotic/antimycotic solution, from PAA, Pasching, Austria). The spinal column was bisected longitudinally and removed, together with the fasciae, from the vertebral canal. The dorsal root ganglia (DRGs) were then removed and again placed in cold HBSS buffer to which was added 1% by volume of an AA-solution, and stored. The DRGs, completely freed from residual blood and spinal nerves were transferred, in each case, into 500 μl cold collagenase type 2 (from PAA, Pasching, Austria) and incubated for 35 minutes at 37° C. Following addition of 2.5% by volume of trypsin (from PAA, Pasching, Austria), the material was incubated for a further 10 minutes at 37° C. Following complete incubation, the enzyme solution was carefully pipetted off and 500 μl complete medium was added to the remaining DRGs. The DRGs were suspended several times in each case, drawn by means of a syringe through No. 1, No. 12 and No. 16 cannulae and transferred to 50 ml Falcon tubes and these then filled to 15 ml with complete medium. The contents of each Falcon tube was filtered through a 70 μm Falcon filter insert and centrifuged for 10 minutes at 1200 revolutions and at room temperature. The resulting pellet was added, in each case, to 250 μl complete medium and the cell count was determined.
The number of cells in the suspension was adjusted to 3×10^5 per ml and, in each case, 150 μl of this suspension was placed in a well in the coated cell culture plate of the type described above. The plates were left in an incubation cupboard at 37° C. under 5% by volume CO2 and 95% relative humidity for two to three days. […]

VR1 (human) = biological target: T2, VR1 (human) (Homo sapiens, UniProt Q8NER1); assay: FLIPR Ca2+ influx assay in CHO K1 cells stably transfected with the VR1 gene (functional investigation II); assay type: cell-based; details: for VR1 (human) (% blocking compared with 1 μM CP) / VR1 (human) (% stimulation compared with 1 μM CP): VR1-transfected CHO K1 cells; for VR1 (human) (% blocking compared with 1 μM CP): 5 min incubation, then 100 nM capsaicin; for VR1 (human) (% stimulation compared with 1 μM CP): Ca2+ signal relative to capsaicin (CP)
T2 construct: expressed in transfected cells; host or cells: CHO K1 cells (ECACC)
T2 sequence (Q8NER1 whole entry): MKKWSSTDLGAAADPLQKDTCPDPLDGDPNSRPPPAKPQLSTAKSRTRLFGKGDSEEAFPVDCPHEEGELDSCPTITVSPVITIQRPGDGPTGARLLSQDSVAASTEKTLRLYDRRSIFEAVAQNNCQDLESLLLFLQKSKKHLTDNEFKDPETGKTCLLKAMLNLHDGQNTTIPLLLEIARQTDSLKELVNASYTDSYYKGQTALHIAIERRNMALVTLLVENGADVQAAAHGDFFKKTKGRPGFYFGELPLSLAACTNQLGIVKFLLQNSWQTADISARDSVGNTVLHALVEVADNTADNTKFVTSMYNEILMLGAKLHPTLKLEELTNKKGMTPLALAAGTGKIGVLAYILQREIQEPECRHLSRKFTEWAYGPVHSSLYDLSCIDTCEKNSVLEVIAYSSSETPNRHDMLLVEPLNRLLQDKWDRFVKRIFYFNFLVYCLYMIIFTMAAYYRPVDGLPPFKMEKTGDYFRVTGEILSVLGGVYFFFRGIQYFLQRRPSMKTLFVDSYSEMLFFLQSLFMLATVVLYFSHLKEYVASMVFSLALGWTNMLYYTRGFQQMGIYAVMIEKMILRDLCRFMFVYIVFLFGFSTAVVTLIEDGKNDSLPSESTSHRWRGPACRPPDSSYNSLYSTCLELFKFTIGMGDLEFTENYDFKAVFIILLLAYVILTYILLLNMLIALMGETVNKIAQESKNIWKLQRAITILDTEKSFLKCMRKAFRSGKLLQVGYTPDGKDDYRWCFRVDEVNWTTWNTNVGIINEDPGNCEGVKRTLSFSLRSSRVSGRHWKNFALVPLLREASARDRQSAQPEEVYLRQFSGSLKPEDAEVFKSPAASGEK
Description: II. Functional Investigation Using the Vanilloid Receptor (VR1)
The agonistic or antagonistic effect of the substances to be investigated on the vanilloid receptor (VR1) can also be determined with the following assay. According to this assay, the Ca^2+ influx through the channel can be quantified with the aid of a Ca^2+ sensitive dye (of the type Fluo-4, from Molecular Probes, Europe BV, Leiden, Netherlands) in a Fluorescent Imaging Plate Reader (FLIPR, from Molecular Devices, Sunnyvale, USA).
Chinese hamster ovary cells (CHO K1-cells, from the European Collection of Cell Cultures (ECACC), UK) were stably transfected with the VR1 gene. For functional investigations, these cells were plated out on Poly-D-lysine-coated, black 96-well plates with clear bases (from BD Biosciences, Heidelberg, Germany) at a density of 25,000 cells/well. The cells were incubated over night at 37° C. and under 5% CO2 in a culture medium (Nutrient Mixture Ham's F12, 10% by volume FCS (foetal calf serum), 18 μg/ml L-proline). The following day, the cells were incubated with Fluo-4 (Fluo-4 2 μM, Pluronic F127 0.01% by volume, from Molecular Probes in HBSS (Hank's buffered saline solution), from Gibco Invitrogen GmbH, Karlsruhe, Germany) for 30 minutes at 37° C. Subsequently, the plates were washed 3 times with HBSS buffer and, following a further period of incubation for 15 minutes at room temperature, placed in the FLIPR for Ca^2+ measurement. The Ca^2+-dependent fluorescence was measured before and after the addition of the substances to be investigated (wavelength λBX=488 nm, λem=540 nm). Quantification took place by measuring the highest intensity of fluorescence (FC, fluorescence counts) over time.
The FLIPR protocol comprises 2 substance additions. […] Following 5 minutes of incubation, 100 nM capsaicin were applied and the Ca^2+ influx determined again.
Desensitising agonists and antagonists lead to a suppression of the Ca^2+ influx. % inhibition is calculated, compared with the maximum achievable inhibition with 10 μM capsaicin.

[2] = biological target: vanilloid receptor 1 (VR1/TRPV1 receptor) (Homo sapiens, UniProt Q8NER1); assay: Binding affinity for the vanilloid receptor 1
Chain of vanilloid receptor 1 (VR1/TRPV1 receptor) (Q8NER1 whole entry, species assumed): as the sequence (Q8NER1 whole entry) above
Description: The affinity of the pentafluorosulphanyl-substituted compounds according to the invention for the vanilloid receptor 1 (VR1/TRPV1 receptor) was determined as described above.

In the case of `CS(=O)(=O)Nc1ccc(CNC(=S)NCc2ccc(S(F)(F)(F)(F)F)cc2)cc1F` [Example 1, N-{4-[3-(4-pentafluorosulphanyl-benzyl)-thioureidomethyl]-2-fluoro-phenyl}-methanesulphonamide], the IC50 [1] is reported as 360 nM, the “VR1 (rat) (% blocking compared with 1 μM CP)” value [1] is reported as 90.27% and the “VR1 (rat) (% stimulation compared with 1 μM CP)” value [1] is reported as 0.02%. For the same compound, the “VR1 (human) (% blocking compared with 1 μM CP)” value (VR1 (human)) was 87.67%, the “VR1 (human) (% stimulation compared with 1 μM CP)” value (VR1 (human)) was 0.68% and the IC50 (VR1 (human); VR1 human, read-out: IC50 (human)) was 800 nM. It also gave a Ki ([2]; read-out: Binding Ki) of 84 nM.
`O=C(Nc1ccc(S(F)(F)(F)(F)F)cc1)N1CCN(c2ncccc2Cl)CC1` [Example 2, 4-(3-chloro-pyridin-2-yl)-piperazine-1-carboxy-(4-pentafluorosulphanyl-phenyl)-amide] was tested, and the IC50 [1] was 48 nM, the “VR1 (rat) (% blocking compared with 1 μM CP)” value [1] was 101.93% and the “VR1 (rat) (% stimulation compared with 1 μM CP)” value [1] was 0.63%. For the same compound, the IC50 (VR1 (human)) was 250 nM, the “VR1 (human) (% blocking compared with 1 μM CP)” value (VR1 (human)) was 105.44% and the “VR1 (human) (% stimulation compared with 1 μM CP)” value (VR1 (human)) was 3.72%. It also gave a Ki [2] of 12 nM.
For `FS(F)(F)(F)(F)c1ccc(NC(=S)N2CCN(c3ncccc3Cl)CC2)cc1` [Example 3, 4-(3-chloro-pyridin-2-yl)-piperazine-1-thiocarboxy-(4-pentafluorosulphanyl-phenyl)-amide], the Ki ([2]; read-out: Binding Ki) was 94 nM.
